From US5738858A, “Skin care compositions containing fatty hydroxyethyl imidazoline surfactants and retinol or retinyl ester” (priority 1996, dated 1998)

Legend:
[1] = test system: keratinocyte differentiation (TGase 1); test: Transglutaminase (TGase 1) ELISA, keratinocyte differentiation (Example 4); assay type: cell-based, human; settings: used alone; Table 4
Procedure: (§1) Human keratinocytes, isolated from neonatal foreskin by trypsin treatment were grown in Dulbecco Modification Eagle (DME) Hams F12 (1:1) medium/10% fetal calf serum in the presence of irradiated 3T3 mouse fibroblasts for establishing dividing keratinocyte colonies. Cells were grown under the above condition until their second passage and kept frozen for future use. Frozen second passage keratinocytes were thawed and plated into the above medium and grown for five days before they were switched to a serum-free MCDB 153-based medium keratinocyte growth medium (KGM) from Clonetics Corporation, San Diego, Calif., containing 0.15 mM Ca, or keratinocyte serum-free media (KSFM) from GIBCO containing 0.09 mM Ca). On day 7, when the cells were 80-90% confluent, they were trypsinized and plated in the serum-free medium for the various experiments.
During the process of terminal differentiation in the epidermis, a 15 nm thick layer of protein, known as the cornified envelope (CE) is formed on the inner surface of the cell periphery. The CE is composed of numerous distinct proteins which have been cross-linked together by the formation of N ^ε -(γ-glutamyl) lysine isodipeptide bonds catalyzed by the action of at least two different transglutaminases (TGases) expressed in the epidermis. TGase 1 is expressed in abundance in the differentiated layers of the epidermis, especially the granular layer, but is absent in the undifferentiated basal epidermis. […]
Keratinocytes (cultured as described above) were plated in 96 well plates at a density of 3,000 cells per well in […] of cell culture media. […] The absorbance of samples was read at 492 nm in the plate reader. […] Transglutaminase I levels were determined by subtracted background from the readings from each treatment and determining the mean s.d. for the replicates exposed to both antibodies.
(§2) The level of TGase-1 detected after treatment of the cells could be influenced by cell number, i.e., the greater the number of cells the greater the level of TGase-1 detected. […]

[2] = test system: keratinocyte proliferation; test: 3H-Thymidine incorporation / keratinocyte proliferation (Example 1A); assay type: cell-based, human; settings: […]10^-7 to […]10^-9 M; vs ethanol control and retinol treatments
[3] = test system: keratinocyte differentiation (TGase 1); test: Transglutaminase (TGase 1) ELISA normalized to DNA, keratinocyte differentiation (Example 1B); assay type: cell-based, human; settings: […]10^-7 to […]10^-9 M; vs ethanol control
Procedure: as §1, with “experiments. […]” for “experiments.”
Keratinocytes (cultured as described above) were plated in 96 well plates at a density of 3,000 cells per well in 200 μl media. […] The absorbance of samples was read at 492 nm in the plate reader. […] TGase levels were determined by subtracting background from the readings from each treatment and determining mean±s.d. for the replicates exposed to both Ab.
as §2

[4] = test system: ARAT; test: In vitro microsomal esterification of retinol, ARAT catalyzed (retinyl palmitate formation); settings: Table 2, 1 hour, 37° C.
Procedure: (§3) A solution containing 0.1M sodium phosphate pH 7 buffer, 5 mM dithiothreitol, 2 mg/ml bovine serum albumin, 40 micromolar palmitoyl CoA, 40 micromolar dilauroyl phosphatidyl choline, 10 micromolar retinol and a test compound or solvent blank, was incubated for 1 hour at 37° C. with a microsomal fraction isolated from bovine retinal pigment epithelial cells. After incubation, the reaction was quenched by addition of an equal volume of ethanol, and the retinyl esters formed (retinyl palmitate from the ARAT catalyzed reaction, and retinyl laurate from the LRAT catalyzed reaction) were extracted with hexane.

[5] = target: T1, LRAT (Bos taurus, UniProt Q9BGL2); test: In vitro microsomal esterification of retinol, LRAT catalyzed (retinyl laurate formation); assay type: biochemical, bovine; settings: Table 2, 1 hour, 37° C.
T1 construct: microsomal fraction isolated from bovine retinal pigment epithelial cells; from tissue; host or cells: microsomes of bovine retinal pigment epithelial cells (method cited: Saari and Bredberg, J. Biol. Chem. 1988)
T1 sequence (Q9BGL2 1-230): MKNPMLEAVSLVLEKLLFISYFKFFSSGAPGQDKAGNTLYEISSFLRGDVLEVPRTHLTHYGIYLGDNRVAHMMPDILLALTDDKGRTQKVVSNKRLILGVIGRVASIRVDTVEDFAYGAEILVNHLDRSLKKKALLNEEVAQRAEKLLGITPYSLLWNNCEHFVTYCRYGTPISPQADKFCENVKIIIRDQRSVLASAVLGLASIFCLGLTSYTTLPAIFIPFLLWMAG
Procedure: as §3

Structure (SMILES)	keratinocyte differentiation (in words) [1]	% INHIB. ARAT ([4]; 100 μM) [%]	also measured
CC1=C(/C=C/C(C)=C/C=C/C(C)=C/C(=O)O)C(C)(C)CCC1 [RA, retinoic acid]	substantially decreased keratinocyte differentiation	–	keratinocyte proliferation (in words) [2]: significantly increased keratinocyte proliferation over both the ethanol control and each of the 2.5×10^-7 M, 2.5×10^-8 M and 2.5×10^-9 M retinol treatments and they did so in a dose dependant manner
CC1=C(/C=C/C(C)=C/C=C/C(C)=C/CO)C(C)(C)CCC1 [ROH, retinol]	did not affect keratinocyte differentiation when used alone	–	keratinocyte differentiation / transglutaminase level (in words) [3]: The decrease in transglutaminase level was dose dependent
CCCCCCCCCCCCCCCC(=O)OC/C=C(C)/C=C/C=C(C)/C=C/C1=C(C)CCCC1(C)C [RP, retinyl palmitate]	did not affect keratinocyte differentiation when used alone	–	–
Nc1ncnc2nc[nH]c12 [adenine]	–	0	–
O=C1C(N(CO)C(=O)NCO)N(CO)C(=O)N1CO (stereo not shown) [diazolidinyl urea]	–	–	% INHIB. ARAT ([4]; 0 μM as printed): 0%; % INHIB. LRAT ([5]; 0 μM as printed): 0%
CCCCCCCCCCCC(=O)N(C)CC(=O)O [lauroyl sarcosine]	–	20	–
CCCCCCCC/C=C\CCCCCCCC(=O)NCCC[N+](C)(C)CC(=O)[O-] [oleamidopropyl betaine]	–	–	% INHIB. LRAT ([5]; 100 μM): 0%
Cc1ncc(C[n+]2csc(CCO)c2C)c(N)n1 [thiamine]	–	0	–
N[C@@H](Cc1c[nH]c2ccccc12)C(=O)O [tryptophan]	–	0	–
O=c1cc[nH]c(=O)[nH]1 [uracil]	–	0	–
